# Assay results as given in publication PMC5641551, “Chemical Proteomics for Target Discovery of Head-to-Tail Cyclized Mini-Proteins” (Frontiers in Chemistry, 2017).
# No end group written: not given here.
# Test system: Foxo3a transcriptional activity in HEK293 cells co-transfected with 14-3-3β
# Test: Foxo3a luciferase reporter gene assay
# Format: cell-based, human
# Method: Jurkat cells were cultured in RPMI medium containing phenol red supplemented with 10% (v/v) heat deactivated fetal calf serum and 100 U/mL penicillin/streptomycin at 37°C in humidified atmosphere of 5% CO2. HEK293 cells were cultured in Dulbecco's modified eagle high glucose medium supplied with 10% fetal calf serum and 100 U per mL penicillin/streptomycin. Cell transfection was carried out by Jetprime® according to the manufacturer's recommendation (Polyplus, Illkirch, France).
# Forkhead box protein 3a induced transcriptional activity was measured on transiently transfected HEK293 cells (5 × 10^4). The reporter plasmid encoding luciferase under the control of a promotor containing forkhead responsive elements and the human p-Foxo3a-HA plasmid were gifts of Michael Greenberg provided by the Addgene consortium (#1787 and #1789; Brunet et al., [1999]). The plasmids encoding the mouse p-14-3-3 beta-GST protein and the functional forkhead transcription factor were used in a 1.5-fold amount compared to the reporter construct. The transfection was completed after 6 h and the cells could recover for 4 h in growth medium. The cells were serum starved using 1% (v/v) fetal bovine serum in phenol red free DMEM medium supplemented with antibiotics overnight. After 4 h peptide and 24 h of fusicoccin-A treatment the luciferase assay was developed using luciferase development kit from Promega E151 (Wisconsin, United States) and the luminescence was measured on a synergy H4 plate reader (Biotek). Control compounds were the PI3K inhibitors wortmannin and LY294002 (both Sigma Aldrich). The recorded data were normalized to the non-treated control sample. Significance and IC50-values were calculated from at least two biological replicates using GraphPad Prism. Data analysis was performed by non-linear regression using a four parameter Hill equation.
# If not stated in detail for the respective single experiment the statistical tests were performed using GraphPad Prism 5.04 (GraphPad, La Jolla, CA) using one-way ANOVA with Bonferonni or Dunnett's Post-hoc test. The number of technical and biological repeats was justified by analysis of error and reproducibility of results. Significance threshold P < 0.05 was applied to all experiments. For the data shown in Figure 3 three individuals for the in vivo experiments were used and each data point was performed in three technical replicates. The pull down experiments shown in Figures 4A,B were performed a single time and the data represent two technical repeats. Gel lanes were loaded with single (1x) or doubled (2x) amount of pull down proteins for better visibility. The data illustrated in Figures 4C,D were performed in two independent experiments. Silver stained gel lanes were evaluated by loading various amounts, and then the amount with optimized staining contrast was loaded and used for in-gel protein digestion. The pull down experiments shown in Figures 4E,F were performed a single time. The Western Blots and the pull down experiment shown in Figure 5 represent experiments in three and two independent experiments, respectively. Experiments in a well-based format (Figure 6) were performed with three technical and two biological replicates. All data illustrated in this manuscript show the mean ± standard deviation (SD) unless stated otherwise. The MS based protein identifications were performed in two technical analyses for each sample.
# Figure 6 Foxo3a luciferase reporter assay. The modulation of the Akt/PI3K/Foxo3a pathway by the cyclotide [T20K]kB1 binding to 14-3-3 proteins was investigated. HEK293 cells were transiently transfected with Foxo3a-Luc plasmid encoding luciferase under a promotor with Foxo response elements, Foxo3a and 14-3-3β. For control the reporter plasmid (basal value) was also co-transfected with the single functional effector proteins 14-3-3β or Foxo3a. Cells were treated under starving conditions with peptide or fusicoccin-A (FC-A) for 4 h or 24 h, respectively. […]
sequence,measurement,setting,value
"CGETCVGGTCNTPGCKCSWPVCTRNGLPV (also: bicyclic or more (positions not given here)) [[T20K]kB1, synthetic cyclotide drug candidate, Thr20 to Lys mutant of kalata B1]","Foxo3a transcriptional activity, effect in words","HEK293, luciferase reporter, PI3K inhibitors as controls, peptide 4 h",reduced the transcriptional activity of Foxo3a in a concentration-dependent manner
same,IC50,"HEK293 transfected with Foxo3a-Luc, Foxo3a and 14-3-3β, peptide treatment 4 h, IC50 ± SD, two independent experiments, four parameter Hill fit, read-out: IC50, reduction of Foxo3a transcriptional activity (luciferase)",5.27 ± 0.25 µM
same,effect on 14-3-3/Foxo3a protein complex (suggested),inferred from decreased Foxo3a transcriptional activity in reporter assay,exerts a stabilizing effect on the 14-3-3/Foxo3a protein complex
